Key:
KARPASS422 = test: Anti-proliferative activity, 96 hours
KMM-1 = test: Anti-proliferative activity, 96 hours; details: KMM-1, 96 h
[1] = system: MM1.S multiple myeloma tumors; test: Disseminated MM1.S-Luc multiple myeloma model, bioluminescence; type: in vivo, mice; details: 300 μg/kg QD orally
Method: Compound 1 was administered at 300 μg/kg QD (every day) orally to female NOD SCID mice with disseminated MM1.S multiple myeloma tumors with a measurable MM1.S tumor burden on day 0 and dosed PO daily for 3 weeks. […] Data are expressed as mean BLI±SEM.
A xenograft study was conducted. Female SCID animals were irradiated with a 200 rads Co60 irradiator source and after 24 hours, animals were inoculated via tail vein injection with 1×107 MM1.S-Luc in 200 μL PBS. Tumor burden was measured twice weekly using imaging analysis. Mice were injected intraperitoneally with 15 mg/mL of D-luciferin and anesthetized with 1-2% isoflurane inhalation. 10 minutes post luciferin injection, mice were imaged using IVIS Lumina II (Perkin Elmer) and total bioluminescence signal (BLI, photons/s) was measured in a region of interest (ROI). BLI from ROI were quantified and used as an indicator of tumor burden. 29 days post tumor cell inoculation mice were randomized into two groups, with 3 mice per group and an average BLI of 17×10^6 photons. FIG. 6 are images of the mice administered Compound 1 compared to the mice administered vehicle. Images were taken on days 4, 7, 11, 14, and 18.

KI-JK ALCL tumors = test: KI-JK ALCL xenograft efficacy (Example 17); type: in vivo, mice; details: 30 or 100 μg/kg PO daily for 21 days
Method: A xenograft study was conducted in female NOD SCID mice bearing KI-JK ALCL tumors.
Data are expressed as MTV±SEM.

[2] = system: proteins in DL40 tumor lysates; test: Global proteomics of ALCL ALK+ DL40 xenograft tumors, mice treated orally with 100 μg/kg; type: in vivo, mouse
Method: NOD SCI mouse bearing ALCL ALK+DL40 xenografts were treated orally with 100 μg/kg of Compound 1. After 1, 4, 24 and 48 hour treatment, biological duplicates of tumoral cells were harvested, washed twice with PBS, and snap frozen in liquid nitrogen. Samples were resuspended in lysis buffer [8 M urea, 50 mM EPPS (pH 8.5), 50 mM NaCl, lx protease inhibitor cocktail] and lysed by sonication. Lysates were centrifuged at maximum speed, reduced for 1 hour at room temperature with 5 mM TCEP, and the cysteine residues were then alkylated with 15 mM iodoacetamide (room temperature, in dark, 30 minutes). Protein content was extracted twice by methanol-chloroform precipitation and subsequent ice-cold acetone washes. Protein pellets were resuspended in 8 M urea, 50 mM EPPS (pH 8.5) buffer and protein concentrations were measured by BCA assay. Samples were then diluted to 4 M urea with 50 mM EPPS (pH 8.5) and digested at 37° C. for 1 hour with endoproteinase Lys-C, at a 1/100 enzyme/protein ratio. The mixtures were then diluted to 1 M urea with 50 mM EPPS (pH 8.5) and trypsin was added at a 1/50 enzyme/protein ratio. The reaction was incubated overnight at 37° C. and stopped by acidification with formic acid 0.5% (v/v). Peptides were loaded on tC18 SepPak solid-phase extraction cartridges and lyophilized.
For peptide labeling, 100 μg of peptides per sample was prepared at […] concentration in 200 mM EPPS (pH 8.5), ACN was added to a final concentration of 30% and then 50 μg of each TMT 10 reagent. After 1 hour incubation at room temperature, reactions were quenched with 0.3% hydroxylamine for 15 minutes and mixed equally. The mixed sample was desalted using the tC18 SepPak solid-phase extraction cartridges, and lyophilized. Dried peptides were resuspended in 5% ACN, 10 mM NH4HCO3 pH 8 and fractionated in a basic pH reversed phase chromatography using a HPLC equipped with a 3.5 μm XBridge Peptide BEH C18 column. 96 fractions were collected, which were consolidated into 24, of which only 12 nonadjacent samples were analyzed. Samples were desalted, dried via vacuum centrifugation and reconstituted in 12 μL of 5% formic for LC-MS/MS analysis.
A third of each sample (4 μL) was separated by reversed phase chromatography using an EASY-Spray C18 column (2 μm particle size, 250 mm length×75 μm ID) mounted in an EASY-nLC 1200 LC pump coupled to an Orbitrap Fusion Lumos Tribid mass spectrometer. Peptides were separated using a 420 min gradient of 2 to 30% acetonitrile at a flow rate of ˜300 nL/min. Each analysis was performed using the multi-notch MS3 (SPS-MS3) scan. For the identification and relative quantification, all RAW files obtained from the mass spectrometer were transformed using SEQUEST-based software. Briefly, mass spectra were searched against the human Uniprot database (February 2016) concatenated with a database composed of all protein sequences in the reversed order as well as known contaminants. In all SEQUEST searches, precursor ion tolerance was set at 25 ppm and product ion tolerance at 0.9 Da, including methionine oxidation (+15.9949 Da) and cysteine carbamidomethylation (+57.0215 Da) as variable modifications. TMT tag (+229.1629 Da) on lysine residues and peptide N-termini were set as static modifications. Peptide-spectrum matches (PSMs) were performed using a linear discriminant analysis and adjusted to a […]. Peptide intensities were quantified by extracting the signal-to-noise ratio and proteins were further collapsed to a final protein-level FDR of 2%. Protein quantification values were exported to Excel, GraphPad Prism 7 or Perseus14 for further analysis.

O=C1CC[C@H](N2C(=O)c3cccc4c(Cc5ccc(CN6CCOCC6)cc5)ccc2c34)C(=O)N1 (single isomer, unassigned) [Compound 1]
IC50 (KARPASS422): 0.189 nM | IC50 (KMM-1): 0.059 nM | total bioluminescence signal [1]: significantly less than the mice administered vehicle | tumor volume (KI-JK ALCL tumors): decreased | Log2 FC vs Vehicle, IKZF1 ([2]; 4 Hour): −2.466 | Log2 FC vs Vehicle, IKZF3 ([2]; 4 Hour): −2.006 | Log2 FC vs Vehicle, ACTA1 ([2]; 24 Hour): −1.089 | Log2 FC vs Vehicle, ACTN2 ([2]; 24 Hour): −1.304 | Log2 FC vs Vehicle, AK1 ([2]; 24 Hour): −1.041 | Log2 FC vs Vehicle, APOBEC2 ([2]; 24 Hour): −1.355 | Log2 FC vs Vehicle, ATP2A1 ([2]; 24 Hour): −1.427 | Log2 FC vs Vehicle, CASQ1 ([2]; 24 Hour): −1.333 | Log2 FC vs Vehicle, CKM ([2]; 24 Hour): −1.248 | Log2 FC vs Vehicle, CKMT2 ([2]; 24 Hour): −1.544 | Log2 FC vs Vehicle, FHL1 ([2]; 24 Hour): −1.311 | Log2 FC vs Vehicle, IKZF1 ([2]; 24 Hour): −2.515 | Log2 FC vs Vehicle, IKZF3 ([2]; 24 Hour): −1.761 | Log2 FC vs Vehicle, JPH2 ([2]; 24 Hour): −1.117 | Log2 FC vs Vehicle, KLHL41 ([2]; 24 Hour): −1.142 | Log2 FC vs Vehicle, LDB3 ([2]; 24 Hour): −1.136 | Log2 FC vs Vehicle, MYBPC1 ([2]; 24 Hour): −1.366 | Log2 FC vs Vehicle, MYBPC2 ([2]; 24 Hour): −1.146 | Log2 FC vs Vehicle, MYH1 ([2]; 24 Hour): −1.258 | Log2 FC vs Vehicle, MYH2 ([2]; 24 Hour): −1.188 | Log2 FC vs Vehicle, MYH3 ([2]; 24 Hour): −1.165 | Log2 FC vs Vehicle, MYH4 ([2]; 24 Hour): −1.05 | Log2 FC vs Vehicle, MYH7 ([2]; 24 Hour): −2.977 | Log2 FC vs Vehicle, MYH7B ([2]; 24 Hour): −1.231 | Log2 FC vs Vehicle, MYH13 ([2]; 24 Hour): −1.102 | Log2 FC vs Vehicle, MYL1 ([2]; 24 Hour): −1.3 | Log2 FC vs Vehicle, MYL4 ([2]; 24 Hour): −1.344 | Log2 FC vs Vehicle, MYLPF ([2]; 24 Hour): −1.434 | Log2 FC vs Vehicle, MYOM1 ([2]; 24 Hour): −1.201 | Log2 FC vs Vehicle, NEB ([2]; 24 Hour): −1.184 | Log2 FC vs Vehicle, OAS1 ([2]; 24 Hour): 1.172 | Log2 FC vs Vehicle, PVALB ([2]; 24 Hour): −1.105 | Log2 FC vs Vehicle, PYGM ([2]; 24 Hour): −1.139 | Log2 FC vs Vehicle, SPR ([2]; 24 Hour): 1.088 | Log2 FC vs Vehicle, SRL ([2]; 24 Hour): −1.252 | Log2 FC vs Vehicle, TNNC2 ([2]; 24 Hour): −1.035 | Log2 FC vs Vehicle, TNNI2 ([2]; 24 Hour): −1.377 | Log2 FC vs Vehicle, TPM1 ([2]; 24 Hour): −1.146 | Log2 FC vs Vehicle, TRIM72 ([2]; 24 Hour): −1.083 | Log2 FC vs Vehicle, TTN ([2]; 24 Hour): −1.117 | Log2 FC vs Vehicle, ZFP91 ([2]; 24 Hour): −1.279 | fold change, IKZF1 downregulated ([2]; 4 hours): 5.5 | fold change, IKZF3 downregulated ([2]; 4 hours): 4.1 | selectivity, proteins degraded ([2]; 4 hours post a single dose of 100 μg/kg, >7900 proteins detected): degrading only IKZF1/3
